Data on four compounds can be found in ChEMBL document CHEMBL3739418, “RGD-peptides modifying dexamethasone: to enhance the anti-inflammatory efficacy and limit the risk of osteoporosis” (Medchemcomm, 2015).

Activity calls are given as the source filed them. No cut-off for these calls is given here. Residues, ends and D or L forms follow the SMILES beside them. *: point of attachment. Succinyl(O21-dexamethasone) = C[C@@H]1C[C@H]2[C@@H]3CCC4=CC(=O)C=C[C@]4(C)[C@@]3(F)[C@@H](O)C[C@]2(C)[C@@]1(O)C(=O)COC(=O)CCC(=O)*

For data set [1], the system named is A549. The data set is described as follows: Downregulation of DNA replication in human A549 cells at 1 uM after 48 hrs by UV-visible spectrophotometric analysis. In kind it is functional, cell-based.
For data set [2], the system named is Mus musculus. The data set is described as follows: Antiinflammatory activity in xylene-induced ICR mouse edema model assessed as decrease in plasma IL8 level at 25.5 umol/kg, po after 60 mins by microplate reader analysis. In kind it is functional, organism-based.
Data set [3] deals with Mus musculus. The data set can be described thus: Antiinflammatory activity in ICR mouse assessed as inhibition of xylene-induced edema at 25.5 umol/kg, po administered for 30 mins prior to xylene challenge measured after 2 hrs. In kind it is functional, organism-based.
Data set [4] deals with Mus musculus. The data set can be described thus: Toxicity in BALB/C mouse assessed as decrease in femur phosphor level at 1.43 umol/kg/day, po administered for 15 days by molybdenum blue-based assay. In kind it is organism-based. As to conditions: in vivo, 360 h.
Data set [5] relates to Mus musculus. The data set is described as follows: Toxicity in BALB/C mouse assessed as total volumetric bone mineral density at 1.43 umol/kg/day, po administered for 15 days (reference value: 554.3 +/- 17.2 mg/cm3). In kind it is organism-based. As to conditions: in vivo, 360 h.
The test system of data set [6] is Mus musculus. The data set is described as follows: Antiinflammatory activity in xylene-induced ICR mouse edema model assessed as decrease in plasma TNFalpha level at 25.5 umol/kg, po after 60 mins by microplate reader analysis. In kind it is functional, organism-based.
In data set [7] the test system is Mus musculus. The data set is described as follows: Toxicity in BALB/C mouse assessed as femur loss at 1.43 umol/kg/day, po administered for 15 days by pQCT analysis. In kind it is organism-based. As to conditions: in vivo, 360 h.
In data set [8] the test system is Mus musculus. The data set can be described thus: Toxicity in BALB/C mouse assessed as decrease in femur calcium level at 1.43 umol/kg/day, po administered for 15 days by o-methylphenolphthalein complexing ketone-based assay. In kind it is organism-based. The conditions noted are these: in vivo, 360 h.
Data set [9] concerns Mus musculus. The data set is described as follows: Toxicity in BALB/C mouse assessed as decrease in dry femur weight at 1.43 umol/kg/day, po administered for 15 days. In kind it is organism-based. As to conditions: in vivo, 360 h.
In data set [10] the test system is Mus musculus. The data set is described as follows: Toxicity in BALB/C mouse assessed as decrease in ash weight at 1.43 umol/kg/day, po administered for 15 days. In kind it is organism-based. As to conditions: in vivo, 360 h.
Data set [11] can be described thus: Drug metabolism in cytosome of human A549 cells assessed as dexamethasone dimer formation at 1 uM by ESI-MS analysis. The conditions noted are these: a549, 1 µM. In kind it is ADME, cell-based, Cytoplasm.
Data set [12] relates to Mus musculus. The data set is described as follows: Antiinflammatory activity in po dosed ICR mouse assessed as inhibition of xylene-induced edema administered for 30 mins prior to xylene challenge measured after 2 hrs. In kind it is functional, organism-based.

As to `C[C@@H]1C[C@H]2[C@@H]3CCC4=CC(=O)C=C[C@]4(C)[C@@]3(F)[C@@H](O)C[C@]2(C)[C@@]1(O)C(=O)CO` [DEXAMETHASONE], the result in data set [1], in [2] and in data set [6] was Active. For the same compound, the inhibition entry in [3] was “Active”. Besides, the Activity result in data set [4] is listed as “Non-toxic”; in data set [5], 506.3 mg/cm3; in data set [7], “Toxic”; in data set [8], “Toxic”; in data set [9] it was “Toxic”; in data set [10], “Toxic”.

`C[C@@H]1C[C@H]2[C@@H]3CCC4=CC(=O)C=C[C@]4(C)[C@@]3(F)[C@@H](O)C[C@]2(C)[C@@]1(O)C(=O)COC(=O)CCC(=O)N[C@@H](CCCNC(=N)N)C(=O)NCC(=O)N[C@@H](CC(=O)O)C(=O)N[C@@H](Cc1ccccc1)C(=O)O` ({Succinyl(O21-dexamethasone)}-RGDF-OH): the result in [1], in [2] and in data set [6] was Active. The inhibition result in data set [3] was “Active”. Also, the Activity in data set [5] was 555.1 mg/cm3; in data set [9], “Non-toxic”. In [11], the Drug metabolism entry is listed as “metabolite_detected”.

For `CC(C)[C@H](NC(=O)[C@H](CC(=O)O)NC(=O)CNC(=O)[C@H](CCCNC(=N)N)NC(=O)CCC(=O)OCC(=O)[C@@]1(O)[C@H](C)C[C@H]2[C@@H]3CCC4=CC(=O)C=C[C@]4(C)[C@@]3(F)[C@@H](O)C[C@@]21C)C(=O)O` ({Succinyl(O21-dexamethasone)}-RGDV-OH), the result in data set [1], in [2] and in [6] was Active. Moreover, the inhibition result in [3] is “Active”. Further, the Activity in data set [5] was 540.3 mg/cm3; in data set [9], “Non-toxic”. Further, the Drug metabolism result in [11] is “metabolite_detected”.

With `C[C@@H]1C[C@H]2[C@@H]3CCC4=CC(=O)C=C[C@]4(C)[C@@]3(F)[C@@H](O)C[C@]2(C)[C@@]1(O)C(=O)COC(=O)CCC(=O)N[C@@H](CCCNC(=N)N)C(=O)NCC(=O)N[C@@H](CC(=O)O)C(=O)N[C@@H](CO)C(=O)O` ({Succinyl(O21-dexamethasone)}-RGDS-OH), the outcome in data set [1], in data set [2] and in data set [6] was Active. The Activity was 558.5 mg/cm3 in data set [5] and “Non-toxic” in [9]. For the same compound, the Drug metabolism entry in data set [11] was “metabolite_detected”. Further, in data set [12], the inhibition result is “Dose-dependent effect”.
